SMILES strings stand for the structures.

Here are results for one compound from patent US8337835B2, “Use of an endogenous ligand for peroxisome proliferator activated receptor alpha to treat liver disorders” (priority 2009, dated 2012).

The experiment deals with PPARα target gene (ACO and CPT-1) expression. Briefly: PPARα target gene (ACO and CPT-1) expression by quantitative RT-PCR in Hepa 1-6 cells. The experiment is classed as cell-based. Particulars: Hepa 1-6 mouse hepatoma cells, 24 h, serum-free DMEM. The protocol: RT-PCR gene expression analysis and binding assays were employed to address this objective. Wy14,643, 16:0/18:1-GPC, and 18:1/16:0-GPC on PPARα target gene (ACO and CPT-1) expression was measured by quantitative RT-PCR in Hepa 1-6 cells treated for 24 h as in FIG. 6A. Results are mean±SEM of 9 separate experiments. *, P<0.05 compared to control (Ctrl, 80% PBS/20% DMSO).
The C57BL/6 mouse hepatoma cell line Hepa 1-6 (ATCC, CRL-1830) was expanded in DMEM with 10% fetal bovine serum. For experiments, cells were cultured to 50-60% confluence, washed twice with PBS, and the medium was changed to serum-free DMEM supplemented with the various types and concentrations of phosphatidylcholine (sonicated to homogeneity in PBS/1% ethanol/4% fatty acid-free BSA), Wy14,643 (dissolved in 80% PBS/20% DMSO), or vehicle-only solutions. 24 h later, cells were washed, RNA prepared, and ACO and CPT-1 expression levels were determined by quantitative RT-PCR (see FIG. 6). For siRNA experiments, 50-60% confluent cells were treated with siRNAs or their scrambled controls (all diluted in PBS) for 72 h. Following the 72 h siRNA treatment, another set of cells received 16:0/18:1-GPC (using a concentration based on dose-response experiments) for an additional 24 h. Stealth™ siRNA oligonucleotides were used to inhibit the gene expression of mouse ChPT1 ([…]) (SEQ ID NO: 1) and CEPT1 ([…]) (SEQ ID NO: 2) were from Invitrogen (Carlsbad, Calif.).
Total RNA was extracted from Hepa 1-6 cells and liver using Trizol (Invitrogen) and treated with DNase I (RNase-free, Roche Molecular Biochemicals). Reverse transcription to cDNA and real-time quantitative PCR were performed using previously published procedures and primer-probe sequences for ACO and CPT-1 (Chakravarthy et al., 2005). […] Relative mRNA levels were calculated using both the comparative CT and standard curve methods normalized to ribosomal protein L32, an invariant internal control. […]

Take `CCCCCCCC/C=C\CCCCCCCC(=O)OC[C@H](COP(=O)([O-])OCC[N+](C)(C)C)OC(=O)CCCCCCCCCCCCCCC` [18:1/16:0-GPC, 1-oleoyl-2-palmitoyl-sn-glycero-3-phosphocholine, reference compound]: the “expression of PPARα-dependent genes ACO and CPT-I” value is on record as “does not induce PPARα-dependent gene expression”.
